The results in this text go back to patent US8124111B2, “Immunomodulation by altering sphingosine 1-phosphate lyase (SPL) activity” (Children's Hospital & Research Center at Oakland, priority 2005, dated 2012).

In one test the target is T1, SPL (Mus musculus, UniProt Q8R0X7).
T1 construct: from tissue; host or cells: thymus of FVB mice
T1 sequence (Q8R0X7 1-568): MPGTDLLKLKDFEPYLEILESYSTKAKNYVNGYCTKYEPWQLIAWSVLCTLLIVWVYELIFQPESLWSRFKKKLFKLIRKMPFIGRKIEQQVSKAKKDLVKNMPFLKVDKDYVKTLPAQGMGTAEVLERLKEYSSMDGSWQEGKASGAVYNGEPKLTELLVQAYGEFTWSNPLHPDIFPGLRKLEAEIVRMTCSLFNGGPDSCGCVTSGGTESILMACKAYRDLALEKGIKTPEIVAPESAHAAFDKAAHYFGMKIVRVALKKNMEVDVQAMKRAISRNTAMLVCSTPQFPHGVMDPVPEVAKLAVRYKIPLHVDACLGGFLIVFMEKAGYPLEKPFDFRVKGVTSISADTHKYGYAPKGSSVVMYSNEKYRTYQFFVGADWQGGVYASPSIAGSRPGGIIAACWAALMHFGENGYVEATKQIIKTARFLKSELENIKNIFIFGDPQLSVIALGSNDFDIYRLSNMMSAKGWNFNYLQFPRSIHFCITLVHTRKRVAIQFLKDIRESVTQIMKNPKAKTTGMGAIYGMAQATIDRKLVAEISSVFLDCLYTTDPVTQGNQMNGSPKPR
Description: SPL activity in thymic tissue after FTY720 administration in vivo. To be noted: for SPL enzyme inhibition in tissue homogenates: animals treated with FTY720 for 24 hours. Also on record: species or system FVB mice. As for the experimental part: One mg/kg FTY720 was administered by peritoneal injection to FVB mice at time zero. Mice were euthanized at the indicated times, and SPL activity in thymic tissue was determined.
Drug treatments and leukocyte/lymphocyte counts: Four-week old FVB or C3H mice were obtained from Charles River Laboratories (Wilmington, Mass.). Animals were maintained in a pathogen-free facility in microisolator cages. Mice were anaesthetized with isoflurane inhalation, and a single dose of FTY720 (at 1 or 3 mg/kg) or GT11 (at 1, 10 or 100 mg/kg) in sterile water was injected intraperitoneally at time zero. Blood counts were determined by Coulter counter (Coulter Instruments, Hialeah, Fla.) and by manual differential counting. Mice were euthanized by CO2 inhalation at various time points post-injection, followed by tissue harvest. All animal studies were performed in accordance with approved CHORI IACUC protocols.
SPL enzyme assay: Tissues were homogenized by sonication in 9 volumes of ice-cold homogenization buffer (5 mM MOPS pH 7.5, 1 mM DTT, 1 mM EDTA, 0.25 M sucrose, and 5 micrograms/ml each chymostatin, leupeptin, pepstatin A and antipain). SPL assays were conducted using 50 micrograms protein per assay and radioactive [4,5 ^3H]DHS1P substrate, as described previously (Reiss et al., (2004) J Biol Chem 279, 1281-1290). For in vitro FTY720 and FTY720-P experiments, drug was incubated with whole cell extracts prepared from HEK293 cells infected with an adenoviral vector expressing human SPL. These extracts contained approximately 200 picomoles/mg protein/minute SPL activity. Drug was incubated with extracts for 30 minutes, followed by addition of extracts to reaction buffer and substrate to initiate the reaction.
Inhibition of SPL by FTY720 in vivo—The effect on SPL enzyme activity of FTY720 administration was tested. Four-week old female FVB mice were given 1 mg/kg FTY720 by intraperitoneal injection, and tissue SPL activity in thymus was assessed over time. […] SPL inhibition occurred concomitantly with lymphopenia, and was consistent with the timing of lymphopenia reported previously (Chiba et al., (1998) J Immunol 160, 5037-5044) (Table 1).
To address whether the inhibition of SPL activity in homogenates of tissues isolated from FTY720 treated animals was reversible, tissue SPL activity was measured in the presence of increasing amounts of non-radiolabeled DHS1P substrate.

The test system of test [1] is human SPL luciferase reporter construct. The test is described as follows: SPL gene expression, human SPL luciferase reporter in HEK293 cells. Type of test: cell-based. The settings on record: 0.3 μM or 3.0 μM, 24 hours. As for the experimental part:
(A) SPL gene expression. HEK293 cells were co-transfected with a human SPL luciferase reporter construct and the sea pansy luciferase reporter as a control for transfection efficiency. Twenty-four hours after transfection, cells were treated with 0.3 μM FTY720, 3.0 μM FTY720 or vehicle and incubated for another 24 hours at 37° C. Luciferase activity was then determined as a measure of expression, as described in Experimental Methods. Values shown are luciferase activity normalized to sea pansy luciferase; (B) SPL protein expression. Thymic extracts from control mice (time 0) and mice treated with FTY720 for 24 hours were evaluated for SPL protein expression by immunoblotting. Actin was used as a loading control.
SPL expression: To evaluate the effect of FTY720 and FTY720-P on SPL gene expression, HEK293 cells were treated for 30 minutes with 3 μM of either drug, followed by transfection with pSPL-BamHI, a human SPL-luciferase reporter construct. After 48 hours, reporter expression was determined by luciferase activity as described (Oskouian et al., (2005) J Biol Chem 280, 18403-18410)). Western blotting of mouse tissue extracts was performed using a 1:2000 dilution of polyclonal sera raised against the murine SPL C-terminal peptide: (NH2)—V-T-Q-G-N-Q-M-N-G-S—P—K—P—R—(COOH). [SEQ ID NO:11] […]
On the technique in general: In a reporter assay the amount or activity of a reporter protein is the signal.

Where [2] appears, read: 1 mg/kg FTY720 intraperitoneal, FVB mice, thymus.

As usually defined, the inhibition is the percentage by which the read-out fell short of the control.

Turning to `CCCCCCCCc1ccc(CCC(N)(CO)CO)cc1` [FTY720], the “earliest time at which inhibition of SPL was noted” value at SPL (setting [2]) was 12 h. The “time by which SPL inhibition began to reverse” value on SPL (setting [2]) is not above 48 h. The “SPL enzyme inhibition in tissue homogenates” value at SPL (10 nmol substrate (standard assay conditions)) is 21%; at SPL (40 nmol unlabeled substrate), 25%; at SPL (2-fold increase in unlabeled DHS1P substrate), 14%. At SPL (mouse, ip, 1 mg/kg FTY720 intraperitoneal, FVB mice, thymus, at 36 hours, read-out: peak inhibition of SPL activity), the inhibition at 1 mg/kg is approximately 40%. Besides, the “SPL gene expression (luciferase activity normalized to sea pansy luciferase)” value in test [1] is listed as “not affected”.
